Patent US20170137410A1, “FUSED CYCLOALKYL-PYRIMIDINE COMPOUNDS AND USES THEREOF” (Medivation Technologies, Inc., priority 2014, published 2017)
Each block holds one compound with its values, some of them ahead of it.

How the values were obtained:
FLT3 (D835Y) = molecular target: T1, FLT3 (D835Y) (Homo sapiens, UniProt P36888, D835Y); experiment: HotSpot kinase assay against FLT3 (D835Y); type: biochemical; conditions: HotSpot 33P assay, ATP 10 μM
T1 sequence (P36888 27-993 D835Y): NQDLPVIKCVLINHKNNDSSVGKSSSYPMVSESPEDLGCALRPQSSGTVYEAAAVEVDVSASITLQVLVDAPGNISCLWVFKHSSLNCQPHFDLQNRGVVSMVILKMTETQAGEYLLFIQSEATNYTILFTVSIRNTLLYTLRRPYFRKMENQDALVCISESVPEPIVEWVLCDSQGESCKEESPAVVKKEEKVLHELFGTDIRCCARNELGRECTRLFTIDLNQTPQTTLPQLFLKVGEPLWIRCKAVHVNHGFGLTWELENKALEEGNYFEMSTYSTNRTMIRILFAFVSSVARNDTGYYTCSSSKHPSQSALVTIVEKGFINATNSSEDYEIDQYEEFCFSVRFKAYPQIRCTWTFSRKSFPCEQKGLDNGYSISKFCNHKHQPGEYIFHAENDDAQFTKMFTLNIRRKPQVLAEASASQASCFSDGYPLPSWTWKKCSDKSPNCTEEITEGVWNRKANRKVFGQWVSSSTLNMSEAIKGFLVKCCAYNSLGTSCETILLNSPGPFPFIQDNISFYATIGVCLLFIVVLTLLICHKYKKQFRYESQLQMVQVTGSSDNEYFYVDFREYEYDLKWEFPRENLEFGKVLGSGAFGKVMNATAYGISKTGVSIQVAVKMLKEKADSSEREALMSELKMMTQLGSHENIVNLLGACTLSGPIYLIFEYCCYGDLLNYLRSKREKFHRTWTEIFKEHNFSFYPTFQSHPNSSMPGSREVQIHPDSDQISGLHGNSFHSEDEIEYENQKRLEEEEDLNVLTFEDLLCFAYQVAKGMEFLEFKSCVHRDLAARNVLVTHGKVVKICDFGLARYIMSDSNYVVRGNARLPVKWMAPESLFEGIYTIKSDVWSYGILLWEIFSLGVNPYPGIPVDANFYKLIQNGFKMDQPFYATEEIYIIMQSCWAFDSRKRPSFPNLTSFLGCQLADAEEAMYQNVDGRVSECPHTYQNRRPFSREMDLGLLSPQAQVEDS
Protocol: (§1) Kinase assays were performed using test compounds against a panel of FLT3 kinases: FLT3; FLT3 (D835Y); and FLT3 (ITD). Compounds were prepared as 10 mM stock solutions in DMSO prior to use in the assay. Each compound was tested at 10 concentrations with three-fold serial dilution starting at 1 μM against the three kinases. The control compound, staurosporine, was tested at 10 concentrations with four-fold serial dilution starting at 20 μM. IC50 values and curve fits were obtained using Prism (GraphPad Software). The screening was performed using the “HotSpot” assay platform. The assay measures the conversion of a peptide substrate to ^33P-labelled phosphorylated product. Briefly, specific kinase/substrate pairs along with required cofactors were prepared in reaction buffer. Specifically, the substrate was prepared in reaction buffer (20 mM Hepes, pH 7.5; 10 mM MgCl2; 1 mM EGTA; 0.02% Brij35; 0.02 mg/mL BSA; 0.1 mM Na3VO4; 2 mM DTT; 1% DMSO), followed by delivery of any required cofactor to the resulting substrate solution. The corresponding kinase was delivered into the substrate solution and the reaction mixture was mixed gently. Compound was delivered into the reaction mixture, followed 15-20 min later by addition of a mixture of ATP (Sigma, St. Louis Mo.) and ^33P ATP (specific activity 0.01 μCi/μL final; Perkin Elmer, Waltham, Mass.) to a final concentration of 10 μM to initiate the reaction. Reactions were carried out at RT for 120 min, followed by spotting of the reactions onto P81 ion exchange filter paper (Whatman #3698-915; Whatman Inc., Piscataway, N.J.). Unbound phosphate was removed by extensive washing of filters in 0.75% phosphoric acid. […] The percent of enzyme inhibition was calculated based on the percent of remaining kinase activity. IC50 values were determined.

FLT3 (ITD) = molecular target: T2, FLT3 (ITD) (Homo sapiens, UniProt P36888); experiment: HotSpot kinase assay against FLT3 (ITD); type: biochemical; conditions: HotSpot 33P assay, ATP 10 μM
T2 sequence (P36888 1-993): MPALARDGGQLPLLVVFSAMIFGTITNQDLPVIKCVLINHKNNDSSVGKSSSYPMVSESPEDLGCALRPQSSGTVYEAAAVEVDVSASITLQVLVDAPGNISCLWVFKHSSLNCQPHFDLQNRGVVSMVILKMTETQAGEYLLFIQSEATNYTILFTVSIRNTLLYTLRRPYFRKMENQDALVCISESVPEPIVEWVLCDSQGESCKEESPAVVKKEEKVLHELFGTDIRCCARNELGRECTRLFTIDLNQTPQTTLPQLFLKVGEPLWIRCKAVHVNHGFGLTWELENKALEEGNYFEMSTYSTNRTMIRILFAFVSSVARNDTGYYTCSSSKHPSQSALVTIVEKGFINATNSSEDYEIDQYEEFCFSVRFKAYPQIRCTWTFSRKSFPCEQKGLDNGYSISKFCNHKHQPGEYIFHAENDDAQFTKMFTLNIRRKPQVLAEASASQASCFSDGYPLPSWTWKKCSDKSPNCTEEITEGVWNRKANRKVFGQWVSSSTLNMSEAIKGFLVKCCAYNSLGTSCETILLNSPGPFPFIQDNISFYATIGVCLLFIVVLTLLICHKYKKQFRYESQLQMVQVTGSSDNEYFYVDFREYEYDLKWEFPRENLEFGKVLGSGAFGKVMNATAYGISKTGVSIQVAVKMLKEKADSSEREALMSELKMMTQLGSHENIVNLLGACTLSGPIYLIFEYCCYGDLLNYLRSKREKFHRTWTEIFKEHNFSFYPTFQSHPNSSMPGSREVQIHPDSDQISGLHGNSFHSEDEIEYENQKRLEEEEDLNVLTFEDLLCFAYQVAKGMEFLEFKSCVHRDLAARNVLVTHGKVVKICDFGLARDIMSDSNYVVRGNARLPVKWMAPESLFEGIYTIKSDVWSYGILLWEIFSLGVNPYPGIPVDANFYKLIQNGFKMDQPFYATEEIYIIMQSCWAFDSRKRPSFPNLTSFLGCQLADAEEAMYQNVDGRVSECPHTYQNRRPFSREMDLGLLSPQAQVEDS
Protocol: as §1

IC50 (FLT3 (D835Y)): 1570 nM
IC50 (FLT3 (ITD)): 1480 nM
Compound: CC1(C(=O)N2CCC(F)(F)CC2)CCCN1c1nc2c(c(Nc3cc(C4CCCC4)[nH]n3)n1)CCC2 (racemic) [compound 146, (1-(4-((5-cyclopentyl-1H-pyrazol-3-yl)amino)-6,7-dihydro-5H-cyclopenta[d]pyrimidin-2-yl)-2-methylpyrrolidin-2-yl)(4,4-difluoropiperidin-1-yl)methanone]

IC50 (FLT3 (D835Y)): 262 nM
IC50 (FLT3 (ITD)): 435 nM
Compound: CCN(C(=O)[C@@H]1CCCN1c1nc2c(c(Nc3cc(C(C)C)[nH]n3)n1)CCC2)c1nccs1 [145b, (S)—N-ethyl-1-(4-((5-isopropyl-1H-pyrazol-3-yl)amino)-6,7-dihydro-5H-cyclopenta[d]pyrimidin-2-yl)-N-(thiazol-2-yl)pyrrolidine-2-carboxamide]

IC50 (FLT3 (D835Y)): > 1000 nM
IC50 (FLT3 (ITD)): > 1000 nM
Compound: CCN(C(=O)[C@@H]1CCCN1c1nc2c(c(Nc3cc(C(C)(C)C)[nH]n3)n1)CCC2)c1nccs1 [144b, (S)-1-(4-((5-(tert-butyl)-1 H-pyrazol-3-yl)amino)-6,7-dihydro-5H-cyclopenta[d]pyrimidin-2-yl)-N-ethyl-N-(thiazol-2-yl)pyrrolidine-2-carboxamide]

IC50 (FLT3 (D835Y)): 187 nM
IC50 (FLT3 (ITD)): 310 nM
Compound: CCC(=O)N1CCN(C(=O)[C@@H]2CCCN2c2nc3c(c(Nc4cc(C5CCCC5)[nH]n4)n2)CCC3)CC1 [143b, (S)-1-(4-((4-((5-cyclopentyl-1H-pyrazol-3-yl)amino)-6,7-dihydro-5H-cyclopenta[d]pyrimidin-2-yl)prolyl)piperazin-1-yl)propan-1-one]

IC50 (FLT3 (D835Y)): 83.8 nM
IC50 (FLT3 (ITD)): 167 nM
Compound: CC(C)c1cc(Nc2nc(N3CCC[C@H]3C(=O)N(C)c3nccs3)nc3c2CCC3)n[nH]1 [68b, (S)-1-(4-((5-isopropyl-1H-pyrazol-3-yl)amino)-6,7-dihydro-5H-cyclopenta[d]pyrimidin-2-yl)-N-methyl-N-(thiazol-2-yl)pyrrolidine-2-carboxamide]

Continued, compound first:

Compound: CC(C)(C)c1cc(Nc2nc(N3CCC[C@@H]3C(=O)N3CCC(F)(F)CC3)nc3c2CCC3)n[nH]1 [142a, (R)-(1-(4-((5-(tert-butyl)-1H-pyrazol-3-yl)amino)-6,7-dihydro-5H-cyclopenta[d]pyrimidin-2-yl)pyrrolidin-2-yl)(4,4-difluoropiperidin-1-yl)methanone]
IC50 (FLT3 (D835Y)): > 1000 nM
IC50 (FLT3 (ITD)): > 1000 nM

Compound: CCC(=O)N1CCN(C(=O)[C@H]2CCCN2c2nc3c(c(Nc4cc(C5CCCC5)[nH]n4)n2)CCC3)CC1 [143a, 1-(4-((4-((5-cyclopentyl-1H-pyrazol-3-yl)amino)-6,7-dihydro-5H-cyclopenta[d]pyrimidin-2-yl)-D-prolyl)piperazin-1-yl)propan-1-one]
IC50 (FLT3 (D835Y)): 14 nM
IC50 (FLT3 (ITD)): 13.7 nM

Compound: CC(C)(C)c1cc(Nc2nc(N3CCC[C@H]3C(=O)N3CCC(F)(F)CC3)nc3c2CCC3)n[nH]1 [142b, (S)-(1-(4-((5-(tert-butyl)-1H-pyrazol-3-yl)amino)-6,7-dihydro-5H-cyclopenta[d]pyrimidin-2-yl)pyrrolidin-2-yl)(4,4-difluoropiperidin-1-yl)methanone]
IC50 (FLT3 (D835Y)): > 1000 nM
IC50 (FLT3 (ITD)): > 1000 nM
